target: factor B (Homo sapiens, UniProt P00751); assay: factor B inhibition assay of Biological Example 1; type: biochemical; parameters: CVF-Bb complex prepared from purified cobra venom factor (1 μM), recombinant human complement factor B; made in house; host or cells: drosophila cells (factor B); E. coli (factor D used to form the complex); details: IC50 (nM), assay of Biological Example 1 (Table 1)
Sequence (P00751 260-764 limits assumed): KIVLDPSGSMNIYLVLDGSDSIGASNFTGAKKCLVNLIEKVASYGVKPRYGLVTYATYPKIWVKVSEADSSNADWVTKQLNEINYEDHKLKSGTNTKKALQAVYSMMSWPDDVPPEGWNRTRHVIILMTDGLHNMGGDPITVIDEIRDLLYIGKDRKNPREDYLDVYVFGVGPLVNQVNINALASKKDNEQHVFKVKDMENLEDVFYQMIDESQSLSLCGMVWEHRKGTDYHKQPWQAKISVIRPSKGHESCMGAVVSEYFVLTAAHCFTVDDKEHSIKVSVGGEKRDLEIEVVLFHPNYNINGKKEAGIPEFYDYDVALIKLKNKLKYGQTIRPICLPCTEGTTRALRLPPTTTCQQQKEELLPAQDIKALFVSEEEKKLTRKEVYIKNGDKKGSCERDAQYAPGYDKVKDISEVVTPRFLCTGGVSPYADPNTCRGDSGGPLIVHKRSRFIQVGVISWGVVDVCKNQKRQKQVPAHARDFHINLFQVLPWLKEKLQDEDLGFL
Sequence (Q91132 23-649 partner limits assumed): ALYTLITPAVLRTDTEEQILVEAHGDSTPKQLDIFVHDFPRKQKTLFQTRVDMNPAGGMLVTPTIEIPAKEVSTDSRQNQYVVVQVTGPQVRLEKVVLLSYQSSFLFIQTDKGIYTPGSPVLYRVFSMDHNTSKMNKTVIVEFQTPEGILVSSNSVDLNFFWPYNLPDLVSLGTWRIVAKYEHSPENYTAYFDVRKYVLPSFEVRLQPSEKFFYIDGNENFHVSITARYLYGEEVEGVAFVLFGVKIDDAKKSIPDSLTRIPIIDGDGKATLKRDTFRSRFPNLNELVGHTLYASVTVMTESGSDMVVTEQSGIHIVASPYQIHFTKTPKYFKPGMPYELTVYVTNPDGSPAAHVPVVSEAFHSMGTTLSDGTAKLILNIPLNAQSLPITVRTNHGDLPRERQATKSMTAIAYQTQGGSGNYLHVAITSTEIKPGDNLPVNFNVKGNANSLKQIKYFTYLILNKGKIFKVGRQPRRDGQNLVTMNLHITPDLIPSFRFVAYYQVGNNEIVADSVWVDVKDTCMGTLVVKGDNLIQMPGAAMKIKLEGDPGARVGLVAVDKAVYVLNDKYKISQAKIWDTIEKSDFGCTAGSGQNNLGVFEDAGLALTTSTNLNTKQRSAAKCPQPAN
Sequence (Q91132 733-984 partner limits assumed): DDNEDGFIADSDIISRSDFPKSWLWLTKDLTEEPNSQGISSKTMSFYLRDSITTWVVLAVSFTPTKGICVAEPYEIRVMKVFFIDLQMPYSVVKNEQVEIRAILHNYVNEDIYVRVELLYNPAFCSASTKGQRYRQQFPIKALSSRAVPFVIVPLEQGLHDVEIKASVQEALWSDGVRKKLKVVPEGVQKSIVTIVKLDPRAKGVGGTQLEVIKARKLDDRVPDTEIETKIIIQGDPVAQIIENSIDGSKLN
Sequence (Q91132 1264-1642 partner limits assumed): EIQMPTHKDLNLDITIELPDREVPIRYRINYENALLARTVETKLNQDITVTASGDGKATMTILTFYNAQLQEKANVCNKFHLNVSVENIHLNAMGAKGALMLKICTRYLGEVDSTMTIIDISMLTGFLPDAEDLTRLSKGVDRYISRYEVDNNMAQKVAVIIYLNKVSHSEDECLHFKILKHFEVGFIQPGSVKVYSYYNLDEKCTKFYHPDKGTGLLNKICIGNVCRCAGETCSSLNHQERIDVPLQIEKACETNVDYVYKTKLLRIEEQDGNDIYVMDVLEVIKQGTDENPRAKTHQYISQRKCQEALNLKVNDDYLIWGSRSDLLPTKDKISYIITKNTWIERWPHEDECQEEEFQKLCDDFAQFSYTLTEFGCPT

Structure (SMILES)	IC50 [nM]
Cc1cc(C(C)C)c(C(N)c2nc3cc(C#N)ccc3[nH]2)c2cc[nH]c12 (single isomer, unassigned) [97 b) (tr = 19.4 min), (−) or (+)-2-(amino(5-isopropyl-7-methyl-1H-indol-4-yl)methyl)-1H-benzo[d]imidazole-5-carbonitrile]	70
Cc1cc(S(C)(=O)=O)c(C(O)(c2nc3cc(C#N)ccc3[nH]2)C(F)(F)F)c2cc[nH]c12 (single isomer, unassigned; (-)) [14-D b) (−), (−)-2-(2,2,2-trifluoro-1-hydroxy-1-(7-methyl-5-(methylsulfonyl)-1H-indol-4-yl)ethyl)-1H-benzo[d]imidazole-5-carbonitrile]	270
CCOc1cc(C)c2[nH]ccc2c1C(O)c1nc2cc(C#N)ccc2[nH]1 (single isomer, unassigned; (+)) [24-C b) (+), (+)-2-((5-ethoxy-7-methyl-1H-indol-4-yl)(hydroxy)methyl)-1H-benzo[d]imidazole-5-carbonitrile]	6050
COc1cc(C)c2[nH]ccc2c1C(C)(OC)c1nc2cc(C#N)ccc2[nH]1 (single isomer, unassigned; (+)) [27-B b) (+), (+)-2-(1-methoxy-1-(5-methoxy-7-methyl-1H-indol-4-yl)ethyl)-1H-benzo[d]imidazole-5-carbonitrile]	60
Cc1cc(C(C)C)c(C(O)c2nc3cc(C#N)ccc3[nH]2)c2cc[nH]c12 (single isomer, unassigned; (-)) [67-D b) (−), (−)-2-(hydroxy(5-isopropyl-7-methyl-1H-indol-4-yl)methyl)-1H-benzo[d]imidazole-5-carbonitrile]	60
COc1cc(C)c2[nH]ccc2c1C(C)(O)c1nc2cc(C#N)ccc2o1 (racemic) [126-C a), (±)-2-(1-hydroxy-1-(5-methoxy-7-methyl-1H-indol-4-yl)ethyl)benzo[d]oxazole-5-carbonitrile]	8
Cc1cc(Cl)c2[nH]ccc2c1Cc1nc2cc(C#N)ccc2[nH]1 [Example 110-K, 2-((7-Chloro-5-methyl-1H-indol-4-yl)methyl)-1H-benzo[d]imidazole-5-carbonitrile]	3330
Cc1cc(Cl)c(C(C)(O)c2nc3cc(C#N)ccc3[nH]2)c2cc[nH]c12 (single isomer, unassigned; (+)) [79-E b) (+), (+)-2-(1-(5-chloro-7-methyl-1H-indol-4-yl)-1-hydroxyethyl)-1H-benzo[d]imidazole-5-carbonitrile]	1120
Cc1cc(C)c2[nH]ccc2c1C(N)c1nc2ccc(C#N)cc2[nH]1 (single isomer, unassigned; (-)) [95-B b) (−), (−)-2-(amino(5,7-dimethyl-1H-indol-4-yl)methyl)benzo[d]imidazole-5-carbonitrile]	480
COc1cc(C)c2[nH]ccc2c1C(O)c1cc2cc(C#N)ccc2o1 (racemic) [Example 134, (±)-2-(hydroxy(5-methoxy-7-methyl-1H-indol-4-yl)methyl)benzofuran-5-carbonitrile]	90
CCc1cc(C)c2[nH]ccc2c1C(O)c1nc2cc(C#N)ccc2[nH]1 (single isomer, unassigned; (-)) [67-A b) (−), (−)-2-((5-ethyl-7-methyl-1H-indol-4-yl)(hydroxy)methyl)-1H-benzo[d]imidazole-5-carbonitrile]	160
CCOc1cc(C)c2[nH]ccc2c1C(CNC)c1nc2cc(C#N)ccc2[nH]1 (racemic) [Example 45, (±)-2-(1-(5-ethoxy-7-methyl-1H-indol-4-yl)-2-(methylamino)ethyl)-1H-benzo[d]imidazole-5-carbonitrile]	1040
Cc1cc(C(C)C)c(C(C)(O)c2nc3cc(C#N)ccc3[nH]2)c2cc[nH]c12 (single isomer, unassigned; (+)) [79-B b) (+), (+)-2-(1-hydroxy-1-(5-isopropyl-7-methyl-1H-indol-4-yl)ethyl)-1H-benzo[d]imidazole-5-carbonitrile]	1070
CNC(=O)c1cc(C)c2[nH]ccc2c1C(O)(c1nc2cc(C#N)ccc2[nH]1)C(F)(F)F (racemic) [Example 82, (±)-4-(1-(5-cyano-1H-benzo[d]imidazol-2-yl)-2,2,2-trifluoro-1-hydroxyethyl)-N,7-dimethyl-1H-indole-5-carboxamide]	71900
COC(c1nc2cc(C#N)ccc2[nH]1)(c1c(S(C)(=O)=O)cc(C)c2[nH]ccc12)C(F)(F)F (single isomer, unassigned; (-)) [15-D b) (−), (−)-2-(2,2,2-trifluoro-1-methoxy-1-(7-methyl-5-(methylsulfonyl)-1H-indol-4-yl)ethyl)-1H-benzo[d]imidazole-5-carbonitrile]	680
CCOCc1cc(C)c2[nH]ccc2c1C(O)c1nc2cc(C#N)ccc2[nH]1 (single isomer, unassigned; (+)) [66-D b) (+), (+)-2-((5-(ethoxymethyl)-7-methyl-1H-indol-4-yl)(hydroxy)methyl)-1H-benzo[d]imidazole-5-carbonitrile]	30400

Structure (SMILES)	IC50 [nM]
COc1cc(C)c2[nH]ccc2c1C(O)c1nc2cc(C#N)ccc2[nH]1 (single isomer, unassigned; (+)) [24-B b) (+), (+)-2-(hydroxy(5-methoxy-7-methyl-1H-indol-4-yl)methyl)-1H-benzo[d]imidazole-5-carbonitrile]	370
COc1cc(C)c2[nH]ccc2c1C(C)(OC)c1nc2cc(C#N)ccc2o1 (racemic) [127-B a), (±)-2-(1-methoxy-1-(5-methoxy-7-methyl-1H-indol-4-yl)ethyl)benzo[d]oxazole-5-carbonitrile]	330
COC(=O)COC(c1nc2cc(C#N)ccc2[nH]1)(c1c(OC)cc(C)c2[nH]ccc12)C(F)(F)F (racemic) [35-B a), (±)-Methyl 2-(1-(5-cyano-1H-benzo[d]imidazol-2-yl)-2,2,2-trifluoro-1-(5-methoxy-7-methyl-1H-indol-4-yl)ethoxy)acetate]	70
CNC(c1nc2cc(C#N)ccc2[nH]1)c1c(C)cc(C)c2[nH]ccc12 (racemic) [Example 98-B, (±)-2-((5,7-Dimethyl-1H-indol-4-yl)(methylamino)methyl)-1H-benzo[d]imidazole-5-carbonitrile]	560
Cc1cc(OC(F)F)c(C(O)c2nc3cc(C#N)ccc3[nH]2)c2cc[nH]c12 (single isomer, unassigned; (-)) [3-B b) (−), (−)-2-((5-(difluoromethoxy)-7-methyl-1H-indol-4-yl)(hydroxy)methyl)-1H-benzo[d]imidazole-5-carbonitrile]	250
Cc1cc(C(C)C)c(C(O)c2nc3cc(C#N)ccc3[nH]2)c2cc[nH]c12 (single isomer, unassigned; (+)) [67-D b) (+), (+)-2-(hydroxy(5-isopropyl-7-methyl-1H-indol-4-yl)methyl)-1H-benzo[d]imidazole-5-carbonitrile]	3220
Cc1cc(C)c2[nH]cc(-c3ccccc3)c2c1C(O)c1nc2cc(C#N)ccc2[nH]1 (single isomer, unassigned) [118-C b) (tr = 4.6 min), (+)- or (−)-2-((5,7-dimethyl-3-phenyl-1H-indol-4-yl)(hydroxy)methyl)-1H-benzo[d]imidazole-5-carbonitrile]	30
Cc1cc(OC(C)C)c(C(O)(c2nc3cc(C#N)ccc3[nH]2)C(F)(F)F)c2cc[nH]c12 (stereo not drawn) [Example 33-D]	310
Cc1cc(C(C)C)c(C(C)(N)c2nc3cc(C#N)ccc3[nH]2)c2cc[nH]c12 (stereo not drawn) [102-E a)]	60
Cc1cc(C(C)C)c(C(O)(c2nc3cc(C#N)ccc3[nH]2)C(F)(F)F)c2cc[nH]c12 (single isomer, unassigned; (+)) [80-F b) (+), (+)-2-(2,2,2-trifluoro-1-hydroxy-1-(5-isopropyl-7-methyl-1H-indol-4-yl)ethyl)-1H-benzo[d]imidazole-5-carbonitrile]	690
CCc1cc(C)c2[nH]ccc2c1C(N)c1nc2cc(C#N)ccc2[nH]1 (single isomer, unassigned; (+)) [96-C b) (+), (+)-2-(amino(5-ethyl-7-methyl-1H-indol-4-yl)methyl)-1H-benzo[d]imidazole-5-carbonitrile]	2210
Cc1cc(Br)c(C(N)(c2nc3cc(C#N)ccc3[nH]2)C(F)(F)F)c2cc[nH]c12 (single isomer, unassigned; (-)) [105-B b) (−), (−)-2-(1-amino-1-(5-bromo-7-methyl-1H-indol-4-yl)-2,2,2-trifluoroethyl)-1H-benzo[d]imidazole-5-carbonitrile]	20
Cc1cc(C)c2[nH]ccc2c1C(OCC(=O)O)c1nc2cc(C#N)ccc2[nH]1 (racemic) [Example 69, (±)-2-((5-cyano-1H-benzo[d]imidazol-2-yl)(5,7-dimethyl-1H-indol-4-yl)methoxy)acetic acid]	3630
COc1cc(C)c2[nH]cc(Cl)c2c1C(C)(O)c1nc2cc(C#N)ccc2[nH]1 (single isomer, unassigned) [Example 29-B, (+) or (−)-2-(1-(3-chloro-5-methoxy-7-methyl-1H-indol-4-yl)-1-hydroxyethyl)-1H-benzo[d]imidazole-5-carbonitrile]	2570
Cc1cc2c(c3cc[nH]c13)C(c1nc3cc(C#N)ccc3[nH]1)(C(F)(F)F)OC2=O (racemic) [Example 81-D, (±)-2-(5-Methyl-3-oxo-1-(trifluoromethyl)-3,6-dihydro-1H-furo[3,4-e]indol-1-yl)-1H-benzo[d]imidazole-5-carbonitrile]	2930
COc1cc(C)c2[nH]cc(Cl)c2c1C(O)c1nc2cc(C#N)ccc2[nH]1 (single isomer, unassigned; (-)) [28-C b) (−), (−)-2-((3-chloro-5-methoxy-7-methyl-1H-indol-4-yl)(hydroxy)methyl)-1H-benzo[d]imidazole-5-carbonitrile]	140

same assay, conditions: assay of Biological Example 1 (Table 1)

Structure (SMILES)	IC50 [nM]
Cc1cc(OC(C)C)c(C(C)(O)c2nc3cc(C#N)ccc3[nH]2)c2cc[nH]c12 (single isomer, unassigned; (+)) [26-E b) (+), (+)-2-(1-hydroxy-1-(5-isopropoxy-7-methyl-1H-indol-4-yl)ethyl)-1H-benzo[d]imidazole-5-carbonitrile]	170

— patent US9056874B2, “Complement pathway modulators and uses thereof” (NOVARTIS AG, priority 2012, dated 2015)
